In one experiment the target is rα6β4 nAChR (Rattus norvegicus, UniProt P12392+P43143). The experiment in a line: cell-based.
In the next experiment the target is rα3β4 nAChR (Rattus norvegicus, UniProt P04757+P12392). In words: cell-based.
Experiment [1] addresses T1, rα6/α3β2β3 nAChR (Rattus norvegicus, UniProt P04757+P12390+P43143). In words: cell-based.
The next experiment has as its target rα2β2 nAChR (Rattus norvegicus, UniProt P12389+P12390). In words: cell-based.
In the next experiment the target is rα2β4 nAChR (Rattus norvegicus, UniProt P12389+P12392). The experiment in a line: cell-based.
The next experiment has as its target rα3β2 nAChR (Rattus norvegicus, UniProt P04757+P12390). In words: cell-based.
In the next experiment the target is rα4β2 nAChR (Rattus norvegicus, UniProt P09483+P12390). The experiment in a line: cell-based. In kind it is cell-based.
Another experiment concerns the target rα4β4 nAChR (Rattus norvegicus, UniProt P09483+P12392). The experiment in a line: cell-based.
The next experiment addresses rα7 nAChR (Rattus norvegicus, UniProt Q05941). In words: cell-based.
A further experiment deals with rα9α10 nAChR (Rattus norvegicus, UniProt P43144+Q9JLB5). The experiment in a line: cell-based.
Another experiment concerns the target hα6/α3β4 nAChR (Homo sapiens, UniProt P30926+P32297+Q15825). The experiment in a line: cell-based.
The next experiment addresses hα3β4 nAChR (Homo sapiens, UniProt P30926+P32297). The experiment in a line: cell-based.
In another experiment the target is hα6/α3β2β3 nAChR (Homo sapiens, UniProt P17787+P32297+Q05901+Q15825). In words: cell-based.
The target of another experiment is hα4β2 nAChR (Homo sapiens, UniProt P17787+P43681). In words: cell-based.
The target in experiment [2] is T2, rα6/α3β4 nAChR (Rattus norvegicus, UniProt P04757+P12392+P43143). The experiment in a line: cell-based.
The target of experiment [3] is T2, rα6/α3β4 nAChR. It is filed as cell-based.
Experiment [4] has as its target T1, rα6/α3β2β3 nAChR. It is filed as cell-based.
Where [5] appears, read: read-out: inhibition of ACh-evoked current.

Usually IC50 stands for the midpoint of a concentration-inhibition curve. Read a high IC50 as weaker potency in that assay. As usually defined, the inhibition is the drop in the measured response relative to a control, in per cent. The koff is the rate constant with which the complex falls apart. Lower therefore signals slow dissociation. As a reminder, the kon is the rate constant with which the complex forms. Read a low kon as slower complex formation.

Each structure is given as a SMILES string. Bridge positions count the residues as written; N and C are the ends. Peptide text beside a SMILES is read from it.

T2 sequence (P43143 31-237 limits assumed): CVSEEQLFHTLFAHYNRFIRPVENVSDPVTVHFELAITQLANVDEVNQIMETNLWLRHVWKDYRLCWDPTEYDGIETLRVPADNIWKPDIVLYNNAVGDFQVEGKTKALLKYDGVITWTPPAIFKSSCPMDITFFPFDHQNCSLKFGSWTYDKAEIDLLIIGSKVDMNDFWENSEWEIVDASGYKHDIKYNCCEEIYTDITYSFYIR
T2 sequence (P04757 233-499 limits assumed): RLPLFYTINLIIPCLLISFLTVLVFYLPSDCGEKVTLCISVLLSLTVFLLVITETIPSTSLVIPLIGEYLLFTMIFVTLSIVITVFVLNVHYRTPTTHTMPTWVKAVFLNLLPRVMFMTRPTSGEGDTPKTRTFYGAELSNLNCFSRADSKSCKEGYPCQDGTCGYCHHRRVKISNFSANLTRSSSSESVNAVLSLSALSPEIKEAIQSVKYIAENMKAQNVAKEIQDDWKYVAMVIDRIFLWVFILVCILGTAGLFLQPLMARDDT
T2 sequence (P12392 22-495 limits assumed): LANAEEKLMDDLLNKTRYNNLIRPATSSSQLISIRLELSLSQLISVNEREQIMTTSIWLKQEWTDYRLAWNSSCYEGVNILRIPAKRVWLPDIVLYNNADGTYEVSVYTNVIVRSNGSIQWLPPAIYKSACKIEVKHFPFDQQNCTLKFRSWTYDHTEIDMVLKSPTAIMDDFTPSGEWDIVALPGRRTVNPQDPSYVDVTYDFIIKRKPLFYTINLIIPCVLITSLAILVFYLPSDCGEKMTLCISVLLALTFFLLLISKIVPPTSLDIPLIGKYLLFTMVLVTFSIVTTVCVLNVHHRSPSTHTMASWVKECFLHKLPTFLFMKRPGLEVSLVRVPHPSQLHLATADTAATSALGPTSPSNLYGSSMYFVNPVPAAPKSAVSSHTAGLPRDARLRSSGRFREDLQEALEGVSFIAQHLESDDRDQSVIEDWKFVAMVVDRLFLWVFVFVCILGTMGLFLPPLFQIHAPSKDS
T1 sequence (P43143 31-237 limits assumed): as the sequence (P43143 31-237 limits assumed) above
T1 sequence (P04757 233-499 limits assumed): as the sequence (P04757 233-499 limits assumed) above
T1 sequence (P12390 25-500 limits assumed): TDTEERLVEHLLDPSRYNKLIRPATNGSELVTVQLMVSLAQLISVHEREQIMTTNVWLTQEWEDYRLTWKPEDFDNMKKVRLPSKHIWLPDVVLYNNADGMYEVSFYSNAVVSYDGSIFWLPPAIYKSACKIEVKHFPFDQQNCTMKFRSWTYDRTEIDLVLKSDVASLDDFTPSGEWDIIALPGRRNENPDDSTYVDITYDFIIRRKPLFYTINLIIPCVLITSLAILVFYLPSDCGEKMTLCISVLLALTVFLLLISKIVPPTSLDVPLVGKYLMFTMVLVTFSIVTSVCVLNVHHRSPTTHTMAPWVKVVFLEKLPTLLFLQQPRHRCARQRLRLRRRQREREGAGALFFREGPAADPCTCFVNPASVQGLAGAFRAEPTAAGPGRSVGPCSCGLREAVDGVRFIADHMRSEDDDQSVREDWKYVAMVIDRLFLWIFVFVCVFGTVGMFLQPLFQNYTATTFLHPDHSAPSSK
Sequence of rα4β2 nAChR (P09483 31-630 limits assumed): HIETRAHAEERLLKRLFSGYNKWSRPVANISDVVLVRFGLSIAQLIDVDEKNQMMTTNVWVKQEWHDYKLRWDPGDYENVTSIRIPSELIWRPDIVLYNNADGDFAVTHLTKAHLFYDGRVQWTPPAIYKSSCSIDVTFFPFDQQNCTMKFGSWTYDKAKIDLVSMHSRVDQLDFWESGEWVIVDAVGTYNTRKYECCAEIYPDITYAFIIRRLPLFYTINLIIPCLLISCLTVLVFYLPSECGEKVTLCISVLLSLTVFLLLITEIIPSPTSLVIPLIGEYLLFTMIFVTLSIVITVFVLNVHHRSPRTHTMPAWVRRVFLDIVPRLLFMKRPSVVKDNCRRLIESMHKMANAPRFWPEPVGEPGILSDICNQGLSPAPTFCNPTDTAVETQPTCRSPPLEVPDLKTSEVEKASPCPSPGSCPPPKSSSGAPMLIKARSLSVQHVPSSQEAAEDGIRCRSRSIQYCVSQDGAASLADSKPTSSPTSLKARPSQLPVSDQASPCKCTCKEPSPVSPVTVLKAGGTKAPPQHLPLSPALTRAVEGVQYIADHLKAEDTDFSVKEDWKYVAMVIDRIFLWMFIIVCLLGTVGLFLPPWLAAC
Sequence of rα4β2 nAChR (P12390 25-500 limits assumed): as the sequence (P12390 25-500 limits assumed) above
Sequence of rα3β4 nAChR (P04757 26-499 limits assumed): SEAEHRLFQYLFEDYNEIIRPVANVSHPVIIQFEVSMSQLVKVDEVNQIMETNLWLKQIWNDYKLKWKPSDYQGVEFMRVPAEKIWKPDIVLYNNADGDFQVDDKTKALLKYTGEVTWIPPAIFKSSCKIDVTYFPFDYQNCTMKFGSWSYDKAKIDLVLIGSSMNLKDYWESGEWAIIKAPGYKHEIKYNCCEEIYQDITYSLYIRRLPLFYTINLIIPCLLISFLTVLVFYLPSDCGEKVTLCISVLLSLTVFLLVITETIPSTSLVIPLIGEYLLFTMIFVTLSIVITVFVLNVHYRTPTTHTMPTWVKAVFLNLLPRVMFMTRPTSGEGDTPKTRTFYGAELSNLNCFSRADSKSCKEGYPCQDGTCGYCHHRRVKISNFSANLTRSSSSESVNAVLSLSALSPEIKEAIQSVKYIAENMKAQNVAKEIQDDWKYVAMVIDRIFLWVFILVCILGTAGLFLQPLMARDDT
Sequence of rα3β4 nAChR (P12392 22-495 limits assumed): as the sequence (P12392 22-495 limits assumed) above
Sequence of hα6/α3β2β3 nAChR (P17787 whole entry, looked up): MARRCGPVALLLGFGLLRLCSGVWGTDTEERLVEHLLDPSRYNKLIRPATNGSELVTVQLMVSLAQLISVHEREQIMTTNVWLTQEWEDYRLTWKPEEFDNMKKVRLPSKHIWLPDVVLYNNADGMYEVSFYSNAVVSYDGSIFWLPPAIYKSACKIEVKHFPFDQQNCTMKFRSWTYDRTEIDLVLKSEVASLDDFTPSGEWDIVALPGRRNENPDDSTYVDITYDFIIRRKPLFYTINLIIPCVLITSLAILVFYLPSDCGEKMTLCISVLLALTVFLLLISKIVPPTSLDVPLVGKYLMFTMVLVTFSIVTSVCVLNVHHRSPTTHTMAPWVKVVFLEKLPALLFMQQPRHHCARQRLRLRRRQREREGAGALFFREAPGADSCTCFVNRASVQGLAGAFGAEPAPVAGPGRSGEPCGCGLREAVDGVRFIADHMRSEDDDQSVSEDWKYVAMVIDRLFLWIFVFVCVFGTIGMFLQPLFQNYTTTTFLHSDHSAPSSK
Sequence of hα6/α3β2β3 nAChR (P32297 whole entry, looked up): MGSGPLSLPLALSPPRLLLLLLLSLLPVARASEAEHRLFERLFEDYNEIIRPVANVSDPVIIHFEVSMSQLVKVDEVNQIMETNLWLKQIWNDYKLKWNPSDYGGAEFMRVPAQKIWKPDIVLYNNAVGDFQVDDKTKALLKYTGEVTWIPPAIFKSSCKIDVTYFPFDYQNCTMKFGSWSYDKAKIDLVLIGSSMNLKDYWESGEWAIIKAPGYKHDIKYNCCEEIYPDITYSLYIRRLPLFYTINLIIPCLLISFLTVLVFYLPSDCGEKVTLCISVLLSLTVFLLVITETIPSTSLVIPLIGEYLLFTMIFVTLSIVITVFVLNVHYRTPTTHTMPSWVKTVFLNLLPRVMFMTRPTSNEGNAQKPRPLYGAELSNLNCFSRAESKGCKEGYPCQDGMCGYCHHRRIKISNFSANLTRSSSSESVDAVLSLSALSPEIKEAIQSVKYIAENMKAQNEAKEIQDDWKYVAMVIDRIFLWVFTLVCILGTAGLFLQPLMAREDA
Sequence of hα6/α3β2β3 nAChR (Q05901 whole entry, looked up): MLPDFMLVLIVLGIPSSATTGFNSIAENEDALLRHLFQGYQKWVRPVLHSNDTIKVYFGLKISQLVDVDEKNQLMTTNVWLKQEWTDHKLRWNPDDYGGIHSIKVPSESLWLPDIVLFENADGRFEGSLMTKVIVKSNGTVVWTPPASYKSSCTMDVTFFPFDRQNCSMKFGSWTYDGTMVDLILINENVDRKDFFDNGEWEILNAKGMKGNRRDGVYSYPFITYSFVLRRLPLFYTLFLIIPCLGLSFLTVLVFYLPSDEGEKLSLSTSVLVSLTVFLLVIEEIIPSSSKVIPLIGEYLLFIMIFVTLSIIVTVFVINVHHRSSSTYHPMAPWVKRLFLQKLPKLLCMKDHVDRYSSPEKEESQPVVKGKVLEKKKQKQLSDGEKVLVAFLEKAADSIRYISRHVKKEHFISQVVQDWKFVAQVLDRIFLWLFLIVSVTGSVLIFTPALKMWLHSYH
Sequence of hα6/α3β2β3 nAChR (Q15825 whole entry, looked up): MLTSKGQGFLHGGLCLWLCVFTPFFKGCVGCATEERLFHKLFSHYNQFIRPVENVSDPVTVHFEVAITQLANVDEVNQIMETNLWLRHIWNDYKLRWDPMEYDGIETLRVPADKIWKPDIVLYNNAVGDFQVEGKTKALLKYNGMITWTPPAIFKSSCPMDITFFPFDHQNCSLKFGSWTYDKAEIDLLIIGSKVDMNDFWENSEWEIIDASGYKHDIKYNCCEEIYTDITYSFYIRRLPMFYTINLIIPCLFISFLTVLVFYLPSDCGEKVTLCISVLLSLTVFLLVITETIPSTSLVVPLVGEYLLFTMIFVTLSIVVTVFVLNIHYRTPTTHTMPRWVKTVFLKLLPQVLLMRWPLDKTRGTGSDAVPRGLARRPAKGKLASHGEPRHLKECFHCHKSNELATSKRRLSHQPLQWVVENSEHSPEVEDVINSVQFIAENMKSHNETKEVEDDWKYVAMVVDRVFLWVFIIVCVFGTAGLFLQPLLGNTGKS
Sequence of rα4β4 nAChR (P09483 31-630 limits assumed): as the sequence (P09483 31-630 limits assumed) above
Sequence of rα4β4 nAChR (P12392 22-495 limits assumed): as the sequence (P12392 22-495 limits assumed) above
Sequence of rα3β2 nAChR (P04757 26-499 limits assumed): as the sequence (P04757 26-499 limits assumed) above
Sequence of rα3β2 nAChR (P12390 25-500 limits assumed): as the sequence (P12390 25-500 limits assumed) above

Regarding `CC(C)[C@@H]1NC(=O)[C@@H]2CCCN2C(=O)[C@H](Cc2c[nH]cn2)NC(=O)[C@H](CO)NC(=O)[C@@H]2CSSC[C@@H](C(=O)NCC(N)=O)NC(=O)[C@H](CC(N)=O)NC(=O)[C@@H]3CCCN3C(=O)[C@H](CC(N)=O)NC(=O)[C@H](CCCCN)NC(=O)[C@H]([C@@H](C)O)NC(=O)[C@H](Cc3ccc(O)cc3)NC(=O)[C@H](CSSC[C@H](NC(=O)CNC(=O)CN)C(=O)N2)NC1=O` [VnIB] (H-GGCCSHPVCYTKNPNCG-NH2; disulfide 3-9, 4-16), the IC50 is 0.012 µM against rα6β4 nAChR; 0.32 µM against rα3β4 nAChR; 4 µM against rα6/α3β2β3 nAChR [1]; greater than 10 µM at rα2β2 nAChR; greater than 10 µM on rα2β4 nAChR; greater than 10 µM at rα3β2 nAChR. Also, the concentration for half-maximal inhibition (IC50) at rα4β2 nAChR is greater than 10 µM; at rα4β4 nAChR, greater than 10 µM; at rα7 nAChR, greater than 10 µM; at rα9α10 nAChR, greater than 10 µM; against hα6/α3β4 nAChR, 0.0053 µM; against hα3β4 nAChR, greater than 10 µM. Besides, the IC50 at hα6/α3β2β3 nAChR and against hα4β2 nAChR was greater than 10 µM in each case. The inhibition at 1 µM on rα3β4 nAChR (setting [5]) stood at 80%; at rα6/α3β2β3 nAChR [1] (setting [5]), 23%. The “effect on ACh-evoked response” value on rα4β2 nAChR was “no significant effect”. Further, the koff at rα6/α3β4 nAChR [2] was 0.00437 s⁻¹. In addition, at rα6/α3β4 nAChR [2], the kon was 420000 M⁻¹ s⁻¹. In addition, the “reduction of ACh-evoked currents” value is ~ 85% on rα6/α3β4 nAChR [3] and ~ 10% on rα6/α3β2β3 nAChR [4].

The values are drawn from paper PMC6693646 (Neuropharmacology, 2019).
